Test results taken from patent US10479780B2, “Aminopyrazole derivatives” (Chugai Seiyaku Kabushiki Kaisha, priority 2015, dated 2019).
Read-outs that look alike come from different tables or passages of the source.

What was measured:
Format in all cases: biochemical
human Yes1 enzyme = biological target: T1, human Yes1 enzyme (Homo sapiens, UniProt P07947); assay: Yes1 enzyme inhibitory activity (time-resolved fluorometry, biotinylated peptide phosphorylation); conditions: read-out: YES_IC50
T1 construct: made in house
Procedure, shortened: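 Inhibition was expressed against a compound-free control to give IC50, using TR-FRET read-out (Eu-cryptate anti-pTyr antibody, streptavidin-XL665).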

human Src enzyme = biological target: T2, human Src enzyme (Homo sapiens, UniProt P12931); assay: Src enzyme inhibitory activity (time-resolved fluorometry, biotinylated peptide phosphorylation); conditions: read-out: SRC_IC50
T2 construct: purchased Carna Biosciences, Inc. 08-173
Procedure, shortened: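 Compounds were tested for blocking tyrosine phosphorylation of a biotinylated peptide substrate by recombinant human Src. Phosphorylated product was quantified by time-resolved fluorometry using europium cryptate and XL665 conjugates, and IC50 was calculated against the compound-free control.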

human Lck enzyme = biological target: T3, human Lck enzyme (Homo sapiens, UniProt P06239); assay: Lck enzyme inhibitory activity (time-resolved fluorometry, biotinylated peptide phosphorylation); conditions: read-out: LCK_IC50
T3 construct: purchased Carna Biosciences, Inc. 08-170
Procedure, shortened: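 Readout pairs a europium cryptate-labelled anti-phosphotyrosine antibody with XL665-streptavidin, measured by time-resolved fluorescence. IC50 derived from percent inhibition against untreated controls.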

[1] = biotinylated peptide phosphorylation

T3 sequence (P06239 whole entry): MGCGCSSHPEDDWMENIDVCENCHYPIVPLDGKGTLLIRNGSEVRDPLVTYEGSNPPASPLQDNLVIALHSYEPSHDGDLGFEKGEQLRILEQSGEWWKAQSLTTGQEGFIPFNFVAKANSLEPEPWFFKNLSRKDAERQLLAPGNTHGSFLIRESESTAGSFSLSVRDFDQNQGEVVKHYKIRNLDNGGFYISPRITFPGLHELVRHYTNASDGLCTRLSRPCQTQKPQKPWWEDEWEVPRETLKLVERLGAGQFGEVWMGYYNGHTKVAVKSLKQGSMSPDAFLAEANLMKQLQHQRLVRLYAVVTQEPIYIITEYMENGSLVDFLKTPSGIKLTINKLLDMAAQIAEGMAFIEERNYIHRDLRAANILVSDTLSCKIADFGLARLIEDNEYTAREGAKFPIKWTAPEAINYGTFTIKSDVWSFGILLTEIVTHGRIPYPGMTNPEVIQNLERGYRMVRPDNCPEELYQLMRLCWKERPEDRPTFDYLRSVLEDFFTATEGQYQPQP
T1 sequence (P07947 whole entry): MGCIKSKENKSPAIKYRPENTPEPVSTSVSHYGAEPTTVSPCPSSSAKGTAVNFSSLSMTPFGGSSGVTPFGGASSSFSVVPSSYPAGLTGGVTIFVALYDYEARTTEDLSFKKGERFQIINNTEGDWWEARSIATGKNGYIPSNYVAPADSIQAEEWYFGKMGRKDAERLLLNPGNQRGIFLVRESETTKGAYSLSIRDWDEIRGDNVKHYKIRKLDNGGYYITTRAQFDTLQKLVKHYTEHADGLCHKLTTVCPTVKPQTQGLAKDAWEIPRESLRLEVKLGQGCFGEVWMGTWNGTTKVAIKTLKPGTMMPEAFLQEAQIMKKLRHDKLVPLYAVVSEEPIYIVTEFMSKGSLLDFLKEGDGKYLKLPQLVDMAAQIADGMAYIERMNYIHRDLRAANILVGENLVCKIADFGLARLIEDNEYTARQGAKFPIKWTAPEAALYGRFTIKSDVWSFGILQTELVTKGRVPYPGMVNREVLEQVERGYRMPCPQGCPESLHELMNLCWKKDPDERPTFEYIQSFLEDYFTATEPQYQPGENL
T2 sequence (P12931 whole entry): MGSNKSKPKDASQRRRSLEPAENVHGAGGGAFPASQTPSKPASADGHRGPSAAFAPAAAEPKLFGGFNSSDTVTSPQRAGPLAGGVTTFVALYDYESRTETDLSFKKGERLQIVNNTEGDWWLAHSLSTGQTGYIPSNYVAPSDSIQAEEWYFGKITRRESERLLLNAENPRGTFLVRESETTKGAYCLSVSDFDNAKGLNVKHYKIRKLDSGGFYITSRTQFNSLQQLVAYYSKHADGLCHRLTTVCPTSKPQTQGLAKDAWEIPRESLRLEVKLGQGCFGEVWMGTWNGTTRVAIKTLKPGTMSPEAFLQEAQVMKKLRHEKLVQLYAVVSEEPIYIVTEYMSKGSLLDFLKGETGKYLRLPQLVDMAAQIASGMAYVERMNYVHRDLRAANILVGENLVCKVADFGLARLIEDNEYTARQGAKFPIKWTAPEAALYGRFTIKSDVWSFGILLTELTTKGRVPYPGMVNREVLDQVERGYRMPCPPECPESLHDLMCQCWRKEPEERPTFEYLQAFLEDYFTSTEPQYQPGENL

Molecule `Cc1cc(Oc2ccccc2F)ncc1-n1ncc(C(=O)c2cc3cc(OC(F)F)c(NC4COC4)cc3[nH]2)c1N` [Example 4-23-013, [5-amino-1-[6-(2-fluorophenoxy)-4-methylpyridin-3-yl]pyrazol-4-yl]-[5-(difluoromethoxy)-6-(oxetan-3-ylamino)-1H-indol-2-yl]methanone] has an IC50 (human Yes1 enzyme; [1]) of 1.6 nM, an IC50 (human Src enzyme; [1]) of 40 nM and an IC50 (human Lck enzyme; [1]) of 4.6 nM.
`Cc1cc(Oc2ccccc2F)ncc1-n1ncc(C(=O)c2cc3cc(OC(F)F)c(N4CCOCC4)cc3[nH]2)c1N` [Example 4-25-022, [5-amino-1-[6-(2-fluorophenoxy)-4-methylpyridin-3-yl]pyrazol-4-yl]-[5-(difluoromethoxy)-6-morpholin-4-yl-1H-indol-2-yl]methanone] gave an IC50 (human Yes1 enzyme; [1]) of 5.9 nM, an IC50 (human Src enzyme; [1]) of 59 nM and an IC50 (human Lck enzyme; [1]) of 10 nM.
In the case of `Cc1cc(Oc2ccccc2F)ccc1-n1ncc(C(=O)c2cc3cc(N4CCOCC4)c(N4C(=O)NC(C)(C)C4=O)cc3[nH]2)c1N` [Example 5-1-117, 3-[2-[5-amino-1-[4-(2-fluorophenoxy)-2-methylphenyl]pyrazole-4-carbonyl]-5-morpholin-4-yl-1H-indol-6-yl]-5,5-dimethylimidazolidine-2,4-dione], the IC50 (human Yes1 enzyme) is reported as 0.48 nM, the IC50 (human Src enzyme) is reported as 5 nM and the IC50 (human Lck enzyme) is reported as 1.3 nM.
Work on `Cc1cc(Oc2c(F)cccc2F)ncc1-n1ncc(C(=O)c2cc3cc(OCC(F)F)c(NS(=O)(=O)c4ccccc4Cl)cc3[nH]2)c1N` [Example 5-1-328, N-[2-[5-amino-1-[6-(2,6-difluorophenoxy)-4-methylpyridin-3-yl]pyrazole-4-carbonyl]-5-(2,2-difluoroethoxy)-1H-indol-6-yl]-2-chlorobenzenesulfonamide] yielded an IC50 (human Yes1 enzyme) of 14 nM, an IC50 (human Src enzyme) of 890 nM and an IC50 (human Lck enzyme) of 230 nM.
For `Cc1cc(Oc2ccccc2F)ncc1-n1ncc(C(=O)c2cc3cc(F)c(NS(=O)(=O)C4CC4)cc3[nH]2)c1N` [Example 4-2-043, N-[2-[5-amino-1-[6-(2-fluorophenoxy)-4-methylpyridin-3-yl]pyrazole-4-carbonyl]-5-fluoro-1H-indol-6-yl]cyclopropanesulfonamide], the IC50 (human Yes1 enzyme; [1]) was 1.4 nM, the IC50 (human Src enzyme; [1]) was 87 nM and the IC50 (human Lck enzyme; [1]) was 28 nM.
With `Cc1cc(-n2ncc(C(=O)c3cc4cc(OC5CCN(C6CS(=O)(=O)C6)CC5)c(Br)cc4[nH]3)c2N)ccc1Oc1ccccc1F` [Example 5-1-227, [5-amino-1-[4-(2-fluorophenoxy)-3-methylphenyl]pyrazol-4-yl]-[6-bromo-5-[1-(1,1-dioxothietan-3-yl)piperidin-4-yl]oxy-1H-indol-2-yl]methanone] the IC50 (human Yes1 enzyme) was 3.9 nM, the IC50 (human Src enzyme) was 560 nM and the IC50 (human Lck enzyme) was 46 nM.
Molecule `Cc1cc(Oc2c(F)cccc2F)ncc1-n1ncc(C(=O)c2cc3cc(OC(F)F)c(C4CCN(S(=O)(=O)C5CC5)CC4)cc3[nH]2)c1N` [Example 4-17-013, [5-amino-1-[6-(2,6-difluorophenoxy)-4-methylpyridin-3-yl]pyrazol-4-yl]-[6-(1-cyclopropylsulfonylpiperidin-4-yl)-5-(difluoromethoxy)-1H-indol-2-yl]methanone] has an IC50 (human Yes1 enzyme; [1]) of 17 nM, an IC50 (human Src enzyme; [1]) of 46 nM and an IC50 (human Lck enzyme; [1]) of 37 nM.
Work on `Cc1cc(Oc2ccccc2F)ncc1-n1ncc(C(=O)c2cc3cc(OC(F)F)c(N4CCCS4(=O)=O)cc3[nH]2)c1N` [Example 4-25-004, [5-amino-1-[6-(2-fluorophenoxy)-4-methylpyridin-3-yl]pyrazol-4-yl]-[5-(difluoromethoxy)-6-(1,1-dioxo-1,2-thiazolidin-2-yl)-1H-indol-2-yl]methanone] yielded an IC50 (human Yes1 enzyme; [1]) of 1 nM, an IC50 (human Src enzyme; [1]) of 48 nM and an IC50 (human Lck enzyme; [1]) of 8.7 nM.
For `Cc1cc(Oc2c(F)cccc2F)ncc1-n1ncc(C(=O)c2cc3cc(F)c(N4C(=O)CNC4=O)cc3[nH]2)c1N` [Example 5-1-405, 3-[2-[5-amino-1-[6-(2,6-difluorophenoxy)-4-methylpyridin-3-yl]pyrazole-4-carbonyl]-5-fluoro-1H-indol-6-yl]imidazolidine-2,4-dione], the IC50 (human Yes1 enzyme; [1]) was 2.7 nM, the IC50 (human Src enzyme; [1]) was 66 nM and the IC50 (human Lck enzyme; [1]) was 3.2 nM.
